Measured values as given in patent publication US20250034216A1, “STEREOSELECTIVE COVALENT LIGANDS FOR ONCOGENIC AND IMMUNOLOGICAL PROTEINS” (The Scripps Research Institute, priority 2021, published 2025).

How the values were obtained:
PRORP_C507 = target: T1, PRORP_C507 (Homo sapiens, UniProt O15091); assay: IA-DTB cysteine engagement; assay type: binding; conditions: 22Rv1 cells, 20 μM probe, 1 h, relative to DMSO
T1 construct: endogenous in cells; host or cells: 22Rv1
T1 sequence (O15091 46-583): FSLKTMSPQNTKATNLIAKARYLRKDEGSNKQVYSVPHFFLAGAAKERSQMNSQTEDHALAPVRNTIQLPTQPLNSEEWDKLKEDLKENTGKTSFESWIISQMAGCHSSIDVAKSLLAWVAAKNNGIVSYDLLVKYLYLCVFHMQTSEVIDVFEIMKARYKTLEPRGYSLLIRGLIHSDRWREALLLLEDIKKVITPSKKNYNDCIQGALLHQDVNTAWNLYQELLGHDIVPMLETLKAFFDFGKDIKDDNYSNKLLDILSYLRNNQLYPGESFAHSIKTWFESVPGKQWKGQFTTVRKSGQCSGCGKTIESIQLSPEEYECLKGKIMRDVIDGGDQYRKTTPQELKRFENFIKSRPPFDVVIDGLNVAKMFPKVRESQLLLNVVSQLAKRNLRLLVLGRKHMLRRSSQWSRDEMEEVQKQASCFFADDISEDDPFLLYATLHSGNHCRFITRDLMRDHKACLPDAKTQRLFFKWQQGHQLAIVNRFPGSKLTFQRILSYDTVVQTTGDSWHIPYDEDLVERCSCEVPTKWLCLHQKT
Method in brief: (§1)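 In-situ probe treatment of cells; lysate 2 mg/mL, IA-DTB 1 h RT; MeOH/CHCl3 precipitation, DTT/iodoacetamide, trypsin; streptavidin enrichment; TMT labeling, high-pH fractionation. Ratio = TMT reporter intensity / mean DMSO channels, median-normalized.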

CUL5_C112 = target: T2, CUL5_C112 (Homo sapiens, UniProt Q93034); assay: IA-DTB cysteine engagement; assay type: binding; conditions: 22Rv1 cells, 20 μM probe, 1 h, relative to DMSO
T2 construct: endogenous in cells; host or cells: 22Rv1
T2 sequence (Q93034 1-780): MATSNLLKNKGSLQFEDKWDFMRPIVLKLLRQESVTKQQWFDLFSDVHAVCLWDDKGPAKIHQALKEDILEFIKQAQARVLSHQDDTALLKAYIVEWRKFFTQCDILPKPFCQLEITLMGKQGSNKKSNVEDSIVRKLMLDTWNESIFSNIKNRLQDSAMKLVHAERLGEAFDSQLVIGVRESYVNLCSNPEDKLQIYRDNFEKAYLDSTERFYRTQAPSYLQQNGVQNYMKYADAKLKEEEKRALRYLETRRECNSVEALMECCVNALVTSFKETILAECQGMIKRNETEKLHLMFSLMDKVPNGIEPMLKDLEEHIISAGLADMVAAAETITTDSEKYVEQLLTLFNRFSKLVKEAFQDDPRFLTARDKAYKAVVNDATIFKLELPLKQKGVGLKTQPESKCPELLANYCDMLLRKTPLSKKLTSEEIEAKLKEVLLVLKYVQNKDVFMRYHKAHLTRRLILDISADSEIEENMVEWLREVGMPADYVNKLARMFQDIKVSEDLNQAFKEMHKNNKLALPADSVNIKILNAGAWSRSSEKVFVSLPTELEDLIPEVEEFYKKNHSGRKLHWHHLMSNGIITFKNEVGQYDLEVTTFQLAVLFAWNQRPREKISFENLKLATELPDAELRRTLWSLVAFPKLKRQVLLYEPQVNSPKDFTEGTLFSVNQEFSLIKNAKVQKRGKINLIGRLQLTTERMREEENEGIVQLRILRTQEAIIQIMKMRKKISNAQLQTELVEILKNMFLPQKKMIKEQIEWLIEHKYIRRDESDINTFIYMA
Method in brief: as §1

Row | Compound | % engagement PRORP_C507 (PRORP_C507) | % engagement CUL5_C112 (CUL5_C112)
1 | C=CC(=O)N1C[C@H](c2ccc(Br)cc2)[C@@H]1C(=O)Nc1cccc2cccnc12 [MY-1B, (2R,3S)-1-acryloyl-3-(4-bromophenyl)-N-(quinolin-8-yl)azetidine-2-carboxamide] | 74.25% | 11%
2 | C=CC(=O)N1C[C@H](c2ccc(Br)cc2)[C@H]1C(=O)Nc1cccc2cccnc12 [MY-3B, (2S,3S)-1-acryloyl-3-(4-bromophenyl)-N-(quinolin-8-yl)azetidine-2-carboxamide] | 34.5% | −20%
3 | C=CC(=O)N1C[C@H](c2ccc(Br)cc2)[C@H]1C(=O)Nc1cccc2cccnc12 [MY-3A, (2S,3S)-1-acryloyl-3-(4-bromophenyl)-N-(quinolin-8-yl)azetidine-2-carboxamide] | 1.25% | −14.75%
4 | C=CC(=O)N1C[C@@H](c2ccc(Br)cc2)[C@H]1C(=O)Nc1cccc2cccnc12 [MY-1A, (2S,3R)-1-acryloyl-3-(4-bromophenyl)-N-(quinolin-8-yl)azetidine-2-carboxamide] | 6.75% | 95.5%
